The term inhibition denotes how much of the control response was suppressed.

The record followed here is patent US10195185B2, “3-(1H-imidazo[4,5-C]pyridin-2-yl)-1H-pyrazolo[4,3-B]pyridines and therapeutic uses thereof” (Samumed, LLC, priority 2015, dated 2019).

Common to all, as to type: cell-based
For assay [1], the system named is SW480 colon cancer cells. Briefly: Cell viability assay (CellTiter-Blue), four days. To be noted: Homo sapiens, 96 h; for inhibition at 10 µM: read-out: percent inhibition at 10 μM (given for EC50 of >10 μM); for EC50: CellTiter-Blue cell viability. Summed up:
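Approximately 2×10^3 SW480 cells per well are seeded with compound (8 points, threefold steps, top 10 μM) and incubated four days at 37 °C. CellTiter-Blue is then added for about 3 h and fluorescence read. Non-linear regression gives EC50; for values beyond 10 μM, percent inhibition at that concentration is listed.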
Background: Alamar Blue is a resazurin reagent that responds to reducing activity.

The subject of assay [2] is Wnt activity (Wnt-responsive human Sp5 promoter, TCF/LEF binding sites) in SW480 colon carcinoma cells. Briefly: Wnt activity screening assay: Sp5-Luc luciferase reporter gene in SW480 cells. To be noted: for EC50: 10-point dose-response from 10 μM, incubated overnight; for inhibition at 10 µM: given for EC50 of >10 μM, read-out: percent inhibition at 10 μM. Summed up:
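SW480 cells stably transduced with an Sp5 promoter (eight TCF/LEF sites)–firefly luciferase lentiviral reporter, plated at 4,000 cells/well in 1% FBS medium with compounds (10-point 1:3 series from 10 μM, 0.1% DMSO) overnight at 37 °C. BrightGlo luminescence normalised to DMSO; EC50 by four-parameter fit, else % inhibition at 10 μM.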
For orientation: A reporter such as luciferase makes a cellular process visible.

Assay [3] concerns primary human mesenchymal stem cells (hMSCs). Put plainly: Induction of chondrogenesis in hMSCs (nodule area, Rhodamine B / Nile Red). The conditions noted are these: TGF-β3 as positive control; for Emax: read-out: Max. Activity as % TGF-β3 activity; for EC50: concentration required to induce 50% levels of chondrogenesis, read-out: Conc (nM) of 50% TGF-β3 activity. As for the experimental part: Representative compounds were screened using primary human mesenchymal stem cells (hMSCs) to determine their ability to induce chondrogenesis (process by which cartilage is developed).
Primary human mesenchymal stem cells (hMSCs) were purchased from Lonza (Walkersville, Md.) and expanded in Mesenchymal Stem Cell Growth Media (Lonza). Cells between passage 3 and 6 were used for the experiments.
Each compound was dissolved in DMSO as a 10 mM stock and used to prepare compound source plates. For the 96 well assay, serial dilution (1:3, 6-point dose-response curves from 2700 nM to 10 nM) and compound transfer was performed using the ECHO 550 (Labcyte, Sunnyvale, Calif.) into 96-well clear bottom assay plates (Greiner Bio-One) with appropriate DMSO backfill for a final DMSO concentration of 0.03%. hMSCs were plated at 20,000 cells/well in 250 μL/well Incomplete Chondrogenic Induction Medium (Lonza; DMEM, dexamethasone, ascorbate, insulin-transferrin-selenium [ITS supplement], gentamycin-amphotericin [GA-1000], sodium pyruvate, proline and L-glutamine). TGF-β3 (10 ng/mL) was used as a positive control for differentiation while negative control wells were treated with 75 nL DMSO for normalization and calculating EC50 values. For the 384 well assay, serial dilution (1:3, 8-point dose-response curves from 5000 nM to 2.2 nM) and compound transfer was performed using the ECHO 550 (Labcyte, Sunnyvale, Calif.) into 384-well clear bottom assay plates (Greiner Bio-One) with appropriate DMSO backfill for a final DMSO concentration of 0.03%. hMSCs were plated at 8,000 cells/well in 80 μL/well Incomplete Chondrogenic Induction Medium (Lonza; DMEM, dexamethasone, ascorbate, insulin-transferrin-selenium [ITS supplement], gentamycin-amphotericin [GA-1000], sodium pyruvate, proline and L-glutamine). TGF-β3 (10 ng/mL) was used as a positive control for differentiation while negative control wells were treated with 25 nL DMSO for normalization and calculating EC50 values. Cells were incubated at 37° C. and 5% CO2 for 6 days. To image chondrogenic nodules, the cells were fixed using 4% formaldehyde (Electron Microscopy Sciences), and stained with 2 μg/mL Rhodamine B (Sigma-Aldrich) and 20 μM Nile Red (Sigma-Aldrich) [Johnson K., et. al, A Stem Cell-Based Approach to Cartilage Repair, Science, (2012), 336(6082), 717-721]. The nodules imaged (25 images per well for 96 well plates and 9 images per well for 384 well plates at 10× magnification) by excitation at 531 nm and emission at 625 nm and quantified using the CellInsight CX5 (Thermo Scientific). Area of nodules in each well was normalized to the average of 3 DMSO treated wells on the same plate using Excel (Microsoft Inc.). The normalized averages (fold change over DMSO) of 2 or 3 replicate wells for each compound concentration were calculated. Due to solubility limitations of some of the compounds, curve fitting was incomplete leading to inaccurate EC50 determinations.
Using TGF-β3 as a positive control, the concentration of representative compounds required to induce 50% levels of chondrogenesis is reported. In addition, the maximum activity of each compound and the respective dose that each compound reached maximum chondrogenesis activity is reported.

Molecules are shown by their SMILES.

`c1cncc(-c2ccc3[nH]nc(-c4nc5cnccc5[nH]4)c3n2)c1` [Compound 256, 3-(1H-Imidazo[4,5-c]pyridin-2-yl)-5-(pyridin-3-yl)-1H-pyrazolo[4,3-b]pyridine]: in assay [1], the inhibition at 10 µM came out at 1.8% and the EC50 is greater than 10000 nM. In assay [2], the EC50 was greater than 10000 nM and the inhibition at 10 µM was determined as 21.9%. Besides, in assay [3], the Emax worked out at 55% and the EC50 turned out to be 30 nM.
Turning to `CC(C)(C)CC(=O)Nc1cncc(-c2ccc3[nH]nc(-c4nc5cnccc5[nH]4)c3n2)c1` [Compound 268, N-(5-(3-(1H-Imidazo[4,5-c]pyridin-2-yl)-1H-pyrazolo[4,3-b]pyridin-5-yl)pyridin-3-yl)-3,3-dimethylbutanamide], in assay [1], the inhibition at 10 µM stood at 0% and the EC50 is greater than 10000 nM. Moreover, in assay [2], the EC50 was greater than 10000 nM and the inhibition at 10 µM came to 9.5%. Further, in assay [3], the Emax is 54% and the EC50 turned out to be 10 nM.
Take `Cc1ccncc1-c1ccc2[nH]nc(-c3nc4c(-c5ccsc5)nccc4[nH]3)c2n1` [Compound 285, 5-(4-Methylpyridin-3-yl)-3-(4-(thiophen-3-yl)-1H-imidazo[4,5-c]pyridin-2-yl)-1H-pyrazolo[4,3-b]pyridine]: the EC50 in assay [1] worked out at 638 nM; in assay [2], 206 nM. In addition, the Emax in assay [3] is 47%.
As to `CCCC(=O)Nc1cncc(-c2ccc3[nH]nc(-c4nc5c(-c6ccsc6)nccc5[nH]4)c3n2)c1` [Compound 297, N-(5-(3-(4-(Thiophen-3-yl)-1H-imidazo[4,5-c]pyridin-2-yl)-1H-pyrazolo [4,3-b]pyridin-5-yl)pyridin-3-yl)butyramide], the EC50 was found to be 1100 nM in assay [1], 2090 nM in assay [2] and 7 nM in assay [3]. Moreover, the Emax in assay [3] was found to be 358%.
Taken in the same sequence, the figures for `FC1(F)CCN(Cc2cncc(-c3ccc4[nH]nc(-c5nc6c(-c7ccsc7)nccc6[nH]5)c4n3)c2)C1` [Compound 306, 5-(5-((3,3-difluoropyrrolidin-1-yl)methyl)pyridin-3-yl)-3-(4-(thiophen-3-yl)-1H-imidazo[4,5-c]pyridin-2-yl)-1H-pyrazolo[4,3-b]pyridine] were 1120 nM, 1010 nM, 100 nM and 53%.
Take `CCNCc1cncc(-c2ccc3[nH]nc(-c4nc5c(-c6ccoc6)nccc5[nH]4)c3n2)c1` [Compound 314, N-((5-(3-(4-(Furan-3-yl)-1H-imidazo[4,5-c]pyridin-2-yl)-1H-pyrazolo[4,3-b]pyridin-5-yl)pyridin-3-yl)methyl)ethanamine]: the EC50 in assay [1] is 684 nM; in assay [2], 3470 nM. For the same compound, the Emax in assay [3] stood at 33%.
As to `CC(C)Nc1cncc(-c2ccc3[nH]nc(-c4nc5c(-c6ccoc6)nccc5[nH]4)c3n2)c1` [Compound 320, 5-(3-(4-(Furan-3-yl)-1H-imidazo[4,5-c]pyridin-2-yl)-1H-pyrazolo[4,3-b]pyridin-5-yl)-N-isopropylpyridin-3-amine], the results for the EC50 in assay [1], in assay [2] and in assay [3] were 439 nM, 356 nM and 30 nM, respectively. Also, in assay [3], the Emax stood at 76%.
Regarding `CCCCC(=O)Nc1cncc(-c2ccc3[nH]nc(-c4nc5c(-c6ccoc6)nccc5[nH]4)c3n2)c1` [Compound 327, N-(5-(3-(4-(Furan-3-yl)-1H-imidazo[4,5-c]pyridin-2-yl)-1H-pyrazolo[4,3-b]pyridin-5-yl)pyridin-3-yl)pentanamide], in assay [1], the inhibition at 10 µM is 10.1% and the EC50 was greater than 10000 nM. Also, in assay [2], the EC50 worked out at 2030 nM. In assay [3], the Emax amounted to 91% and the EC50 stood at 10 nM.
Take `CCC(=O)Nc1cncc(-c2ccc3[nH]nc(-c4nc5c(-c6cccs6)nccc5[nH]4)c3n2)c1` [Compound 337, N-(5-(3-(4-(Thiophen-2-yl)-1H-imidazo[4,5-c]pyridin-2-yl)-1H-pyrazolo [4,3-b]pyridin-5-yl)pyridin-3-yl)propionamide]: in assay [1], the inhibition at 10 µM stood at 39.4% and the EC50 is greater than 10000 nM. In assay [2], the EC50 was greater than 10000 nM and the inhibition at 10 µM is 31.8%. In addition, in assay [3], the Emax came to 179% and the EC50 amounted to 7 nM.
In the case of `CN(C)CC(=O)Nc1cncc(-c2ccc3[nH]nc(-c4nc5c(-c6cccc(F)c6)nccc5[nH]4)c3n2)c1` [Compound 969, 2-(Dimethylamino)-N-(5-(3-(4-(3-fluorophenyl)-1H-imidazo[4,5-c]pyridin-2-yl)-1H-pyrazolo[4,3-b]pyridin-5-yl)pyridin-3-yl)acetamide], the EC50 in assay [1] was 1630 nM; in assay [2] it was 3080 nM; in assay [3], 7 nM. Further, the Emax in assay [3] was determined as 63%.
On to `COc1cccc(-c2nccc3[nH]c(-c4n[nH]c5ccc(-c6cccnc6)nc45)nc23)c1` [Compound 994, 3-(4-(3-Methoxyphenyl)-1H-imidazo[4,5-c]pyridin-2-yl)-5-(pyridin-3-yl)-1H-pyrazolo[4,3-b]pyridine], for which, in assay [1], the inhibition at 10 µM is 0% and the EC50 is greater than 10000 nM. Besides, the EC50 in assay [2] amounted to 421 nM. Moreover, in assay [3], the Emax was 51% and the EC50 stood at 30 nM.
For `COc1cccc(-c2nccc3[nH]c(-c4n[nH]c5ccc(-c6cncc(NC(=O)Cc7ccccc7)c6)nc45)nc23)c1` [Compound 1000, N-(5-(3-(4-(3-methoxyphenyl)-1H-imidazo[4,5-c]pyridin-2-yl)-1H-pyrazolo [4,3-b]pyridin-5-yl)pyridin-3-yl)-2-phenylacetamide], in assay [1], the inhibition at 10 µM came to 25.5% and the EC50 is greater than 10000 nM. In assay [2], the EC50 was greater than 10000 nM and the inhibition at 10 µM amounted to 31.1%. For the same compound, the Emax in assay [3] was found to be 41%.
As for `CC(C)CC(=O)Nc1cncc(-c2ccc3[nH]nc(-c4nc5c(-c6ccc(Cl)s6)nccc5[nH]4)c3n2)c1` [Compound 1037, N-(5-(3-(4-(5-Chlorothiophen-2-yl)-1H-imidazo[4,5-c]pyridin-2-yl)-1H-pyrazolo [4,3-b]pyridin-5-yl)pyridin-3-yl)-3-methylbutanamide], the EC50 in assay [1] amounted to 1160 nM; in assay [2] it was 719 nM; in assay [3], 10 nM. In addition, the Emax in assay [3] was 104%.
The corresponding values for `CC(C)(C)C(=O)Nc1cncc(-c2ccc3[nH]nc(-c4nc5c(-c6ccc(Cl)s6)nccc5[nH]4)c3n2)c1` [Compound 1043, N-(5-(3-(4-(5-Chlorothiophen-2-yl)-1H-imidazo[4,5-c]pyridin-2-yl)-1H-pyrazolo[4,3-b]pyridin-5-yl)pyridin-3-yl)pivalamide] are 3340 nM, 1060 nM, 10 nM and 67%.
The corresponding values for `Clc1ccc(-c2nccc3[nH]c(-c4n[nH]c5ccc(-c6cncc(CN7CCCC7)c6)nc45)nc23)s1` [Compound 1049, 3-(4-(5-Chlorothiophen-2-yl)-1H-imidazo[4,5-c]pyridin-2-yl)-5-(5-(pyrrolidin-1-ylmethyl)pyridin-3-yl)-1H-pyrazolo [4,3-b]pyridine] are 926 nM, 1580 nM, 10 nM and 59%.
